Values joined by “and” are separate entries in the source; they are usually repeats but may differ in a detail not shown here. Identical values can stand only once.
How the values were obtained:
H-460 [1] = assay: MTT assay at 72 hr (24 hr drug exposure, wash, 48 hr); assay type: cell-based
Protocol: (§1) Exposition of 24hr to drug, washed, and incubated for another 48hr (total of 72hr assay)

MCF-7 [2] = assay: as above; assay type: cell-based; details: Homo sapiens
Protocol: as §1

SF-268 [3] = assay: as above; assay type: cell-based
Protocol: as §1

CCRF-CEM [4] = assay: MTT or WST-1 assay at 72 hr (24 hr drug exposure, wash, 48 hr); assay type: cell-based
Protocol: as §1

CEM/dCK- [5] = assay: as above; assay type: cell-based; details: for Resistance Factor*: single experiment
Protocol: as §1

H-460 [6] = assay: 3H-TdR (3H-thymidine) incorporation assay at 72 hr; assay type: cell-based, Human
MCF-7 [7] = assay: 3H-TdR (3H-thymidine) incorporation assay at 72 hr; assay type: cell-based, Human; details: Homo sapiens
SF-268 [8] = assay: 3H-TdR (3H-thymidine) incorporation assay at 72 hr; assay type: cell-based, Human
CCRF-CEM [9] = assay: 3H-TdR (3H-thymidine) incorporation assay at 72 hr; assay type: cell-based
Protocol: (§2) Table of IC50 Values (μM) for Controls
(§3) Exposition of 24 hr to drug, wash, incubated for another 48 hr (total of 72 hr assay)
(§4) (3H-Thymidine Incorporation Assay)

CEM/dCK- [10] = assay: 3H-TdR (3H-thymidine) incorporation assay at 72 hr; assay type: cell-based
Protocol: as §2, §3, §4

CEM/ARAC8C cells = assay: Cellular uptake assay of [3H]nucleoside in nucleoside-transport deficient CEM/ARAC8C cells; assay type: in vitro ADME
Protocol: FIG. 1 Comparative uptake of 30 μM [^3H]-troxacitabine in CEM (Panel A) and CEM/ARAC8C (Panel B) cells. [^3H]-Uridine uptake in either the presence or absence of the hENT1 inhibitor, NBMPR or 5 mM non-radioactive uridine was included for comparison as a control substrate.

hENT1 = biological target: T1, hENT1 (Homo sapiens, UniProt Q99808); assay: Cellular uptake assay of [3H]nucleoside in DU145 cells, with or without NBMPR or excess non-radioactive troxacitabine; assay type: in vitro ADME; parameters: The presence of functional es-mediated transport (hENT1) in DU145 cells; endogenous in cells; host or cells: DU145 cells; details: DU-145, 10 μM, 6-min time course, read-out: inhibition of total [3H]uridine uptake in the presence of NBMPR
T1 sequence (Q99808 1-456): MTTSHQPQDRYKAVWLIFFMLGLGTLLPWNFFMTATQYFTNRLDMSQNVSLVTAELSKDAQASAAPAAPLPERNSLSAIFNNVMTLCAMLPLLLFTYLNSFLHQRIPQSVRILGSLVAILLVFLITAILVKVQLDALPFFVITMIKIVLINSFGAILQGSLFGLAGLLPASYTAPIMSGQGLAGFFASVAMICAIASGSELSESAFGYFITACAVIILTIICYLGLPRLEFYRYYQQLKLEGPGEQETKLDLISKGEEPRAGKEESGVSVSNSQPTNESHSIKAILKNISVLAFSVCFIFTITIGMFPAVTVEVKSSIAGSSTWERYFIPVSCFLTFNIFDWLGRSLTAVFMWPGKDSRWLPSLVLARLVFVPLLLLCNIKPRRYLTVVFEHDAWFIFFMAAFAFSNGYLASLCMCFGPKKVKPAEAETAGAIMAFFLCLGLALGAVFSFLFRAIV
Protocol: Cancer Res., 56: 4187-4191.
This experiment is designed to show whether [^3H]L-troxacitabine (10 μM) is taken up by DU145 cells and if the rate of uptake is affected by the addition of high concentrations (1 mM) of non-radioactive troxacitabine.

H-460 [11] = assay: 3H-TdR incorporation at 72 hr (24 hr drug exposure, wash, 48 hr); assay type: cell-based, Human; details: Homo sapiens, NCI-H460, read-out: IC50 in μM (3H-TdR incorporation at 72 hr) H-460 24 h, H-460 Human Lung Carcinoma, 72 hr assay
Protocol: as §3, §4

MCF-7 [12] = assay: as above; assay type: cell-based, Human; details: Homo sapiens, MCF7, read-out: IC50 in μM (3H-TdR incorporation at 72 hr) MCF-7 24 h, MCF-7 Human Breast Carcinoma, 72 hr assay
Protocol: as §3, §4

SF-268 [13] = assay: as above; assay type: cell-based, Human; details: Homo sapiens, SF-268, read-out: IC50 in μM (3H-TdR incorporation at 72 hr) SF-268 24 h, SF-268 Human Central Nervous System Tumor; 24 h drug exposure, 72 hr assay
Protocol: as §3, §4

CEM/dCK- [14] = assay: as above; assay type: cell-based; details: Homo sapiens, CCRF-CEM, read-out: IC50 in μM (3H-TdR incorporation at 72 hr) CEM/dCK- 24 h, CCRF-CEM deoxycytidine kinase-deficient; 24 h drug exposure, 72 hr assay
Protocol: as §3, §4

CEM cells = assay: CellTiter 96 cell proliferation assay (chemosensitivity), 48 h; assay type: cell-based
Protocol: The chemosensitivity of suspension cells lines (e.g., CEM or CEM-derivatives) is assessed using the CellTiter 96 ? proliferation assay. […] Adherent cell lines (e.g., DU145 or DU145^R) are seeded (^˜10^5 cells) in triplicate dishes, 24 h before drug exposure. Growth inhibition is determined by trypsinization and counting cells electronically.

[15] = Homo sapiens, SF-268, read-out: IC50 SF-268 24 h, Average, MTT at 72 hr, Average of the experiments
[16] = Homo sapiens, NCI-H460, 24 h, read-out: IC50 H-460 24 h, Average, Average ± spread of the repeat determinations, 24 h exposure
[17] = Homo sapiens, SF-268, 24 h, read-out: IC50 SF-268 24 h, Average, Average ± spread of the repeat determinations, 24 h exposure
[18] = Homo sapiens, NCI-H460, read-out: IC50 H-460 24 h, MTT at 72 hr, 24 h exposure, single experiment
[19] = MCF7, read-out: IC50 MCF-7 24 h, MTT at 72 hr, 24 h exposure, single experiment
[20] = Homo sapiens, SF-268, read-out: IC50 SF-268 24 h, MTT at 72 hr, 24 h exposure, single experiment
[21] = Homo sapiens, CCRF-CEM, read-out: IC50 CCRF-CEM 24 h, MMT or WST-1 at 72 hr, 24 h exposure, single experiment
[22] = read-out: IC50 CEM/dCK- 24 h, MMT or WST-1 at 72 hr, 24 h exposure, single experiment

SMILES | IC50 (SF-268 [3]; [15]) [µM] | IC50 (H-460 [6]; [16]) [nM] | IC50 (SF-268 [8]; [17]) [nM] | IC50 (H-460 [1]; [18]) [nM] | IC50 (MCF-7 [2]; [19]) [nM] | IC50 (SF-268 [3]; [20]) [µM] | IC50 (CCRF-CEM [4]; [21]) [nM] | Resistance Factor* (CEM/dCK- [5]; CEM/dCK- versus CCRF-CEM) | IC50 (CEM/dCK- [5]; [22]) [µM] | IC50 (H-460 [11]) [µM] | IC50 (MCF-7 [12]) [µM] | IC50 (SF-268 [13]) [µM] | IC50 (CEM/dCK- [14]) [µM] | further results
Nc1ccn([C@@H]2CO[C@H](CO)O2)c(=O)n1 [BCH-4556] | 29 ± 23 | 120 | 440 |  |  |  |  |  |  |  |  |  |  | IC50 (H-460 [1]; Homo sapiens, NCI-H460, read-out: IC50 H-460 24 h, Average, MTT at 72 hr, Average of the experiments): 1600 ± 1600 nM; IC50 (H-460 [1]; read-out: IC50 H-460 24 h, MTT at 72 hr, 24 h exposure, single experiment): 780 nM; IC50 (MCF-7 [2]; MCF7, read-out: IC50 MCF-7 24 h, Average, MTT at 72 hr, Average of the experiments): 2000 ± 2400 nM; IC50 (SF-268 [3]; read-out: IC50 SF-268 24 h, MTT at 72 hr, 24 h exposure, single experiment): 16 µM; IC50 (CCRF-CEM [4]; Homo sapiens, CCRF-CEM, read-out: IC50 CCRF-CEM 24 h, Average, MMT or WST-1 at 72 hr, Average of the experiments): 380 ± 280 nM; IC50 (CCRF-CEM [4]; read-out: IC50 CCRF-CEM 24 h, MMT or WST-1 at 72 hr, 24 h exposure, single experiment): 210 nM and 140 nM; Resistance Factor*, Average (CEM/dCK- [5]; CEM/dCK- versus CCRF-CEM, Average of the experiments): 349 ± 283; IC50 (CEM/dCK- [5]; read-out: IC50 CEM/dCK- 24 h, Average, MMT or WST-1 at 72 hr, Average of the experiments): > 100 µM; IC50 (H-460 [6]; Homo sapiens, NCI-H460, read-out: IC50 H-460 (72 h), 72 h exposure, 3H-TdR incorporation at 72 hr): 40 nM; IC50 (MCF-7 [7]; MCF7, 24 h, read-out: IC50 MCF-7 24 h, Average, Average ± spread of the repeat determinations, 24 h exposure): 180 nM; IC50 (MCF-7 [7]; MCF7, read-out: IC50 MCF-7 (72 h), 72 h exposure, 3H-TdR incorporation at 72 hr): 66 nM; IC50 (SF-268 [8]; Homo sapiens, SF-268, read-out: IC50 SF-268 (72 h), 72 h exposure, 3H-TdR incorporation at 72 hr): 96 nM; IC50 (SF-268 [8]; read-out: IC50 SF-268 24 h, 24 h drug exposure, wash, another 48 hr, 3H-TdR incorporation at 72 hr): 330 nM and 660 nM; IC50 (CCRF-CEM [9]; Homo sapiens, CCRF-CEM, 24 h, read-out: IC50 CCRF-CEM 24 h, Average, Average ± spread of the repeat determinations, 24 h exposure): 78 nM; IC50 (CCRF-CEM [9]; read-out: IC50 CCRF-CEM 24 h, 24 h drug exposure, wash, another 48 hr, 3H-TdR incorporation at 72 hr): 100 nM; IC50 (CEM/dCK- [10]; 24 h, read-out: IC50 CEM/dCK- 24 h, Average, Average ± spread of the repeat determinations, 24 h exposure): > 100 µM; Factor* (Resistance Factor), Average (CEM/dCK- [10]; Average ± spread of the ratios dCK- on wild-type CCRF-CEM): 1792 ± 1584; IC50 (CEM/dCK- [10]; Homo sapiens, CCRF-CEM, read-out: IC50 CEM/dCK- 24 h, 24 h drug exposure, wash, another 48 hr, deoxycytidine kinase-deficient CCRF-CEM): > 100 µM; IC50 (CEM/dCK- [10]; read-out: IC50 CEM/dCK- 24 h, 24 h drug exposure, wash, another 48 hr, deoxycytidine kinase-deficient CCRF-CEM): 56 µM
O=c1ccn([C@@H]2O[C@H](CO)[C@@H](O)[C@H]2O)c(=O)[nH]1 [uridine] |  |  |  |  |  |  |  |  |  |  |  |  |  | uptake of [3H]nucleoside over the 6-min time course (CEM/ARAC8C cells): Lack of [^3H]uridine uptake; inhibition at 10 µM (hENT1): ~75%
CCCCCCCC/C=C/CCCCCCCC(=O)Nc1ccn([C@@H]2CO[C@H](CO)O2)c(=O)n1 (stereo in doubt) [Compound 216, Octadec-9-enoic acid [1-(2-hydroxymethyl-[1,3]dioxolan-4-yl)-2-oxo-1,2-dihydro-pyrimidin-4-yl]-amide] |  |  |  | 64 | 9.4 | 0.4 | 340 | 91 | 31 | 0.00088 | ≤ 0.0001 | 0.018 | 14 | 
Nc1ccn([C@@H]2O[C@H](CO)[C@@H](O)[C@@H]2O)c(=O)n1 [Cytarabine, cytarabine, reference compound] | 25 ± 23 | 52 | 940 |  |  |  |  |  |  |  |  |  |  | EC50 (CEM cells; Homo sapiens, CCRF-CEM, 48 h, read-out: EC50 (50% of the dose response curve)): 10 nM; effect of the es transport inhibitor NBMPR on resistance of CEM cells (CEM cells; presence of NBMPR): increased resistance; IC50 (H-460 [6]; read-out: IC50 H-460 24 h, 24 h drug exposure, wash, another 48 hr, 3H-TdR incorporation at 72 hr): 13 nM and 99 nM; IC50 (SF-268 [8]; read-out: IC50 SF-268 24 h, 24 h drug exposure, wash, another 48 hr, 3H-TdR incorporation at 72 hr, listed as Cytosine Arabinoside): 300 nM
CCCCC/C=C\C/C=C\CCCCCCCC(=O)Nc1ccn([C@@H]2CO[C@H](CO)O2)c(=O)n1 [Compound 217, OCTADECA-9,12-DIENOIC ACID [1-(2- HYDROXYMETHYL- [1,3]DIOXOLAN-4-YL)-2- OXO-1,2-DIHYDRO- PYRIMIDIN-4-YL]-AMIDE] |  |  |  | 11 | 3.9 | 0.12 | 360 | 75 | 27 | ≤ 0.0001 | ≤ 0.0001 | 0.00013 | 1.2 | 

Source: US20030013660A1, “Dioxolane analogs for improved inter-cellular delivery” (Shire BioChem Inc., priority 2000, published 2003)
